In PMC10218596 (International Journal of Molecular Sciences, 2023):

What was measured:
hα6/α3β4 = molecular target: T1, hα6/α3β4 (Homo sapiens, UniProt P30926+P32297+Q15825); test: Electrophysiological assay, ACh concentration-response (Xenopus oocytes); assay type: cell-based; settings: ACh on hα6/α3β4
T1 construct: splicing the N-terminal extracellular domain of the α6 subunit with the α3 subunit; host or cells: Xenopus laevis oocytes injected with cRNA (1:1)

h[α6I56V/α3]β4 = h[α6I56V/α3]β4 (Homo sapiens, UniProt P30926+Q15825, I89V, form not given); assay type: cell-based; settings: ACh on h[α6I56V/α3]β4
h[α6I56V/α3]β4, sequence (Q15825 26-239 I89V, form open): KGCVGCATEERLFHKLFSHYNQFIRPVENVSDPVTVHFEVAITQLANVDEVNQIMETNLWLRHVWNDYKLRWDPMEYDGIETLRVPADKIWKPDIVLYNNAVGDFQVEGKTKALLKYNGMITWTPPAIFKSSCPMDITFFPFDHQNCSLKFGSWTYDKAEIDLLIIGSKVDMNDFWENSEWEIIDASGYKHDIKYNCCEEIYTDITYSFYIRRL
h[α6I56V/α3]β4, sequence (P30926 22-498, form open): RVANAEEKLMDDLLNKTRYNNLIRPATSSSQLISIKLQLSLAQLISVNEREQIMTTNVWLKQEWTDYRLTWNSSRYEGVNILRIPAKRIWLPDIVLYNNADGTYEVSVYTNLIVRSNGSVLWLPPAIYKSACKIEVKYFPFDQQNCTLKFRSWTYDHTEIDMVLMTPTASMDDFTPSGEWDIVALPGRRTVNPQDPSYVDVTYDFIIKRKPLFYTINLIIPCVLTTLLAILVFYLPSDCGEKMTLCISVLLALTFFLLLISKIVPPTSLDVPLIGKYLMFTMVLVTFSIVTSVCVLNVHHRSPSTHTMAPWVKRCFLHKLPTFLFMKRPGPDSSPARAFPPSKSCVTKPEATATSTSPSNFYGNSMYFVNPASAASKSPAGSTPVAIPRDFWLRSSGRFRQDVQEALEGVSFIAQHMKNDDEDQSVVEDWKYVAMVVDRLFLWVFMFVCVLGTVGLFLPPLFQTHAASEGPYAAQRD
h[α6I56V/α3]β4, sequence (P32297 241-505 partner, form open): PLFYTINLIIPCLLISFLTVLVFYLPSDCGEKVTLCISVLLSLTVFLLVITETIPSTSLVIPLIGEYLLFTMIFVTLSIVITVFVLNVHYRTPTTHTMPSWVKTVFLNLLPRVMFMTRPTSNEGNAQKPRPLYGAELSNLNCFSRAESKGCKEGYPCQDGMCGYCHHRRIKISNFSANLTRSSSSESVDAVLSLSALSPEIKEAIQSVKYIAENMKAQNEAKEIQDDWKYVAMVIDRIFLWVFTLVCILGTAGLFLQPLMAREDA

T1 sequence (Q15825+P32297 fused with the stated changes): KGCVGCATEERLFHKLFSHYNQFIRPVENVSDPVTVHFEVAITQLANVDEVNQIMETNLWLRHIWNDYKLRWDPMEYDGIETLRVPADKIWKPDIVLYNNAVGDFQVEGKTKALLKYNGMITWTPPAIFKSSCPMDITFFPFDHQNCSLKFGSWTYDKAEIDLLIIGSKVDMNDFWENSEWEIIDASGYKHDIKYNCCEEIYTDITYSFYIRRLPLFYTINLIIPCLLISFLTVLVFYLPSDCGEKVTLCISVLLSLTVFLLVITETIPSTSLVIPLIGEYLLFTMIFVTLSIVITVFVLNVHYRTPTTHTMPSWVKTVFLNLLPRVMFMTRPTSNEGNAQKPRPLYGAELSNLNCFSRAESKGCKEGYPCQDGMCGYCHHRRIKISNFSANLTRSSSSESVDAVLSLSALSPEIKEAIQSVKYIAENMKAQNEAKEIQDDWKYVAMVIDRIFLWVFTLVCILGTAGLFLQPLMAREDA
T1 sequence (P30926 22-498): as the sequence (P30926 22-498, form open) above

SMILES: CC(=O)OCC[N+](C)(C)C [ACh, acetylcholine chloride]
- Hill Slope (hα6/α3β4): 1.4 (1.2–1.7)
- Hill Slope (h[α6I56V/α3]β4): 1.3 (1.1–1.5)
